Experimental data: patent US20050026911A1, “Benzotriazapinone salts and methods for using same” (priority 2003, published 2005)

Each molecule was assayed against T1, gastrin (CCK2) receptors (Rattus norvegicus, UniProt P30553) (assay: gastrin (CCK2) antagonist activity in an immature rat stomach assay). Conditions: pentagastrin dose-response curves, acid secretion, read-out: pKB rat stomach (converted).
T1 construct: The stomach was excised and flushed with ca. 1 ml of unbuffered physiological saline solution; from tissue; host or cells: isolated whole stomach of immature rats (ca. 21 days old)
T1 sequence (P30553 1-452): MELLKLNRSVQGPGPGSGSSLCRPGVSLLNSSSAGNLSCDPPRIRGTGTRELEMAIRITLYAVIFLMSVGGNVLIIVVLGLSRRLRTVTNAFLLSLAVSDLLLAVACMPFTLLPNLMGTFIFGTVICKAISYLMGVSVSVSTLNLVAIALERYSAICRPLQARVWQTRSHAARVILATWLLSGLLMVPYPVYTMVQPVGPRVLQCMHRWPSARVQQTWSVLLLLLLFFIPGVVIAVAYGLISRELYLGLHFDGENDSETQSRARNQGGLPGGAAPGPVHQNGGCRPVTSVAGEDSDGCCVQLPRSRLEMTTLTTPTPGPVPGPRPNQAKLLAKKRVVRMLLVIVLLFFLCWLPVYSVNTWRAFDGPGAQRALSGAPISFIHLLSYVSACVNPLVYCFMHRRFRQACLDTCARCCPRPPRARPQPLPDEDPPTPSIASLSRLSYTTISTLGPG
Protocol: The compounds of the examples were tested for gastrin (CCK2) antagonist activity in an immature rat stomach assay. The procedure was as follows:
The oesophagus of immature rats (33-50 g, ca. 21 days old) was ligated at the level of the cardiac sphincter and the duodenal sphincter was cannulated. The stomach was excised and flushed with ca. 1 ml of unbuffered physiological saline solution. The fundus was punctured and cannulated. A further 4-5 ml of unbuffered solution was flushed through the stomach to ensure the preparation was not leaking. […] The stomach was continuously perfused at a rate of 1 ml min^−1 with unbuffered solution gassed with 100% O2 with the perfusate passing over an internally referenced pH-electrode fixed 12 cm above the stomach.
After 120 min of stabilisation the drugs were added directly to the serosal solution in the organ bath and after a further 60 min cumulative pentagastrin dose-response curves were started.

Compound	Kb
O=C(CN1N=C(C2CCCCC2)c2ccccc2N(CC(=O)N2CCOCC2)C1=O)Nc1cccc(C(=O)O)c1 [Example 68, 3-{2-[5-Cyclohexyl-1-(2-morpholin-4-yl-2-oxo-ethyl)-2-oxo-1,2-dihydro-3H-1,3,4-benzotriazepin-3-yl]-acetylamino}-benzoic acid]	81.3 nM
O=C(CN1N=C(C2CCCCC2)c2ccccc2N(CC(=O)C2CCCC2)C1=O)Nc1cccc(-c2nnn[nH]2)c1 [Example 125, 2-[5-Cyclohexyl-1-(2-cyclopentyl-2-oxo-ethyl)-2-oxo-1,2-dihydro-3H-1,3,4-benzotriazepin-3-yl]-N-[3-(2H-tetrazol-5-yl)-phenyl]-acetamide]	4.37 nM
CC1(C(=O)CN2C(=O)N(CC(=O)Nc3cccc(CC(=O)O)c3)N=C(C3CCCCC3)c3ccccc32)CCCCC1 [Example 133, [3-(2-{5-Cyclohexyl-1-[2-(1-methyl-cyclohexyl)-2-oxo-ethyl]-2-oxo-1,2-dihydro-3H-1,3,4-benzotriazepin-3-yl}-acetylamino)-phenyl]-acetic acid]	14.1 nM
CC(C)(C)C(=O)CN1C(=O)N(CC(=O)Nc2cccc(O)c2)N=C(C2CCCCC2)c2ccccc21 [Example 84, 2-[5-Cyclohexyl-1-(3,3-dimethyl-2-oxo-butyl)-2-oxo-1,2-dihydro-3H-1,3,4-benzotriazepin-3-yl]-N-(3-hydroxy-phenyl)-acetamide]	27.5 nM
O=C(O)Cc1cccc(NC(=O)CN2N=C(c3ccccn3)c3ccccc3N(CC(=O)C3CCCC3)C2=O)c1 [Example 81]	72.4 nM
O=C(CN1N=C(C2CCCCC2)c2ccccc2N(CC(=O)C2CCCC2)C1=O)Nc1cccc(-c2nc(C(=O)O)co2)c1 [Example 148, 2-(3-{2-[5-Cyclohexyl-1-(2-cyclopentyl-2-oxo-ethyl)-2-oxo-1,2-dihydro-3H-1,3,4-benzotriazepin-3-yl]-acetylamino}-phenyl)-oxazole-4-carboxylic acid]	3.89 nM
CC(C)(C)C(=O)CN1C(=O)N(CC(=O)Nc2cccc(N3CCOCC3)c2)N=C(C2CCCCC2)c2ccccc21 [Example 123, 2-[5-Cyclohexyl-1-(3,3-dimethyl-2-oxo-butyl)-2-oxo-1,2-dihydro-3H-1,3,4-benzotriazepin-3-yl]-N-(3-morpholin-4-yl-phenyl)-acetamide]	18.2 nM
O=C(O)Cc1cccc(NC(=O)CN2N=C(C3CCCCC3)c3ccccc3N(CC(=O)C3CC3)C2=O)c1 [Example 119]	24.5 nM
CN(c1cccc(NC(=O)CN2N=C(C3CCCCC3)c3ccccc3N(CC(=O)C3CCCC3)C2=O)c1)c1nnn[nH]1 [Example 124, 2-[5-Cyclohexyl-1-(2-cyclopentyl-2-oxo-ethyl)-2-oxo-1,2-dihydro-3H-1,3,4-benzotriazepin-3-yl]-N-(3-[methyl-(2H-tetrazol-5-yl)-amino]-phenyl)-acetamide]	2.14 nM
O=C(CN1N=C(C2CCCCC2)c2ccccc2N(CC(=O)C2CCCC2)C1=O)Nc1cccc(-c2ccc(C(=O)O)o2)c1 [Example 149]	1.1 nM

The remaining lines, values ahead:

Kb	Compound
129 nM	CNc1ccccc1NC(=O)CN1N=C(C2CCCCC2)c2ccccc2N(CC(=O)C(C)(C)C)C1=O [Example 101, 2-[5-Cyclohexyl-1-(3,3-dimethyl-2-oxo-butyl)-2-oxo-1,2-dihydro-3H-1,3,4-benzotriazepin-3-yl]-N-(2-methylamino-phenyl)-acetamide]
117 nM	CNCCN(C)c1cccc(NC(=O)CN2N=C(C3CCCCC3)c3ccccc3N(CC(=O)C(C)(C)C)C2=O)c1 [Example 143, 2-[5-Cyclohexyl-1-(3,3-dimethyl-2-oxo-butyl)-2-oxo-1,2-dihydro-3H-1,3,4-benzotriazepin-3-yl]-N-{3-[methyl-(2-methylamino-ethyl)-amino]-phenyl}-acetamide]
6.03 nM	CC(C)(C)C(=O)CN1C(=O)N(CC(=O)Nc2cccc(C(=O)O)c2)N=C(C2CCCCC2)c2c(F)cccc21 [Example 113, 3-{2-[5-Cyclohexyl-1-(3,3-dimethyl-2-oxo-butyl)-6-fluoro-2-oxo-1,2-dihydro-3H-1,3,4-benzotriazepin-3-yl]-acetylamino}-benzoic acid]
457 nM	CC(C)(C)C(=O)CN1C(=O)N(CC(=O)Nc2cccc(NS(C)(=O)=O)c2)N=C(C2CCCCC2)c2ccccc21 [Example 26, 2-[5-Cyclohexyl-1-(3,3-dimethyl-2-oxo-butyl)-2-oxo-1,2-dihydro-3H-1,3,4-benzotriazepin-3-yl]-N-(3-methanesulfonylamino-phenyl)-acetamide]
15.8 nM	CC(C)(C)C(=O)CN1C(=O)N(CC(=O)Nc2ccc3c(c2)N(CC(=O)O)CC3)N=C(C2CCCCC2)c2ccccc21 [Example 34, (6-{2-[5-Cyclohexyl-1-(3,3-dimethyl-2-oxo-butyl)-2-oxo-1,2-dihydro-3H-1,3,4-benzotriazepin-3-yl]-acetylamino}-2,3-dihydro-indol-1-yl)-acetic acid]
44.7 nM	CC(C)(C)C(=O)CN1C(=O)N(CC(=O)Nc2cccc3c2cnn3CC(=O)O)N=C(C2CCCCC2)c2ccccc21 [Example 130, (4-{2-[5-Cyclohexyl-1-(3,3-dimethyl-2-oxo-butyl)-2-oxo-1,2-dihydro-3H-1,3,4-benzotriazepin-3-yl]-acetylamino}-indazol-1-yl)-acetic acid]
174 nM	Cc1cccc(NNC(=O)CN2N=C(C3CCCCC3)c3ccccc3N(CC(=O)C(C)(C)C)C2=O)c1 [Example 46, [5-Cyclohexyl-1-(3,3-dimethyl-2-oxo-butyl)-2-oxo-1,2-dihydro-3H-1,3,4-benzotriazepin-3-yl]-acetic acid N′-m-tolyl-hydrazide]
209 nM	CC(Nc1cccc(NC(=O)CN2N=C(C3CCCCC3)c3ccccc3N(CC(=O)C(C)(C)C)C2=O)c1)C(=O)O (racemic) [Example 75, 2-(3{2-[5-Cyclohexyl-1-(3,3-dimethyl-2-oxo-butyl)-2-oxo-1,2-dihydro-3H-1,3,4-benzotriazepin-3-yl]-acetylamino}-phenylamino)-propionic acid]
0.776 nM	CC1CCC(C2=NN(CC(=O)Nc3cccc(C(=O)O)c3)C(=O)N(CC(=O)C(C)(C)C)c3ccccc32)CC1 (centres unmarked) [Example 102, 3-{2-[1-(3,3-Dimethyl-2-oxo-butyl)-5-(4-methyl-cyclohexyl)-2-oxo-1,2-dihydro-3H-1,3,4-benzotriazepin-3-yl]-acetylamino}-benzoic acid]
0.851 nM	CC(C)(C)C(=O)CN1C(=O)N(CC(=O)Nc2ccc3ccn(CC(=O)O)c3c2)N=C(C2CCCCC2)c2ccccc21 [Example 70, (6-{2-[5-Cyclohexyl-1-(3,3-dimethyl-2-oxo-butyl)-2-oxo-1,2-dihydro-3H-1,3,4-benzotriazepin-3-yl]-acetylamino}-indol-1-yl)-acetic acid]
44.7 nM	CNc1cccc(NC(=O)CN2N=C(C3CCCC3)c3ccccc3N(CC(=O)C(C)(C)C)C2=O)c1 [Example 11, 2-[5-Cyclopentyl-1-(3,3-dimethyl-2-oxo-butyl)-2-oxo-1,2-dihydro-3H-1,3,4-benzotriazepin-3-yl]-N-(3-methylaminophenyl)-acetamide]
2.82 nM	COC(=O)c1cccc(NC(=O)CN2N=C(C3CCCCC3)c3ccccc3N(CC(=O)C(C)(C)C)C2=O)c1 [Example 1, 3-{2-[5-Cyclohexyl-1-(3,3-dimethyl-2-oxo-butyl)-2-oxo-1,2-dihydro-3H-1,3,4-benzotriazepin-3-yl]-acetylamino}-benzoic acid methyl ester]
11 nM	CC(C)(C)C(=O)CN1C(=O)N(CC(=O)Nc2cccc(S(=O)(=O)CC(=O)O)c2)N=C(C2CCCCC2)c2ccccc21 [Example 50]
